# Source: ChEMBL document CHEMBL5096175, “An insight into the medicinal attributes of berberine derivatives: A review” (Bioorg Med Chem, 2021)
# What was measured:
# ECa-109 cell line = assay: Antiproliferative activity against human Eca-109 cells assessed as inhibition of cell proliferation incubated for 48 hrs by MTT assay; assay type: functional, cell-based; conditions: ECa-109, 48 h
# LS174T = assay: Antiproliferative activity against human LS174T cells assessed as inhibition of cell proliferation incubated for 48 hrs by MTT assay; assay type: functional, cell-based
# SGC-7901 = assay: Antiproliferative activity against human SGC-7901 cells assessed as inhibition of cell proliferation incubated for 48 hrs by MTT assay; assay type: functional, cell-based; conditions: SGC-7901, 48 h
# SW-620 = assay: Antiproliferative activity against human SW620 cells assessed as inhibition of cell proliferation incubated for 48 hrs by MTT assay; assay type: functional, cell-based; conditions: SW-620, 48 h
# HCT-116 = assay: Antiproliferative activity against human HCT-116 cells assessed as inhibition of cell proliferation incubated for 48 hrs by MTT assay; assay type: functional, cell-based; conditions: HCT-116, 48 h
# CCRF S-180 = assay: Antiproliferative activity against mouse CCRF S-180 cells assessed as inhibition of cell proliferation incubated for 48 hrs by MTT assay; assay type: functional, cell-based; conditions: CCRF S-180, 48 h
# HCT-8 [1] = assay: Antiproliferative activity against human HCT-8 cells assessed as inhibition of cell proliferation incubated for 48 hrs by MTT assay; assay type: functional, cell-based; conditions: HCT-8, 48 h
# MKN-28 = assay: Antiproliferative activity against human MKN-28 cells assessed as inhibition of cell proliferation incubated for 48 hrs by MTT assay; assay type: functional, cell-based; conditions: MKN-28, 48 h
# [2] = molecular target: Amine oxidase [flavin-containing] B (Homo sapiens, UniProt P27338); assay: Inhibition of human MAO-B preincubated for 30 mins followed by substrate addition and measured for 10 to 40 mins by fluorescence based assay
# Acetylcholinesterase = Acetylcholinesterase (Homo sapiens, UniProt P22303); assay: Inhibition of acetylcholinesterase (unknown origin) using acetylthiocholine iodide as substrate incubated for 10 mins by Ellman's colorimetric method
# HCT-8 [3] = assay: Antiproliferative activity against human HCT-8 cells assessed as inhibition of cell growth incubated for 72 hrs by MTT assay; assay type: functional, cell-based; conditions: HCT-8, 72 h
# A549 = assay: Antiproliferative activity against human A549 cells assessed as inhibition of cell growth incubated for 72 hrs by MTT assay; assay type: functional, cell-based; conditions: A549, 72 h
# HeLa [4] = assay: Antiproliferative activity against human HeLa cells assessed as inhibition of cell growth incubated for 72 hrs by MTT assay; assay type: functional, cell-based
# Bel-7402 = assay: Antiproliferative activity against human Bel-7402 cells assessed as inhibition of cell growth incubated for 72 hrs by MTT assay; assay type: functional, cell-based; conditions: Bel-7402, 72 h
# HEK-293T = assay: Antiinflammatory activity against HEK-293T cells assessed as inhibition of TNF-alpha induced NF-kappaB activation at 5 uM preincubated for 2 hrs followed by TNFalpha stimulation for 6 hrs by dual-luciferase reporter assay relative to control; assay type: functional; conditions: Homo sapiens, time 8 hrs
# Ca-Ski = assay: Anticancer activity against human Ca-Ski cells assessed as inhibition of cell growth by Sulforhodamine B colorimetric assay; assay type: functional, cell-based
# HeLa [5] = assay: Cytotoxicity against human HeLa cells assessed as inhibition of cell growth by Sulforhodamine B colorimetric assay; assay type: functional, cell-based
# [6] = Inhibition of hypoxia induced HIF-1 transcriptional activity in human T47D cells incubated for 1 hr followed by exposure to hypoxic condition for 20 hrs by renilla and HRE-luciferase based dual-luciferase reporter assay; assay type: cell-based
# MCF7 = assay: Antiproliferative activity against human MCF7 cells assessed as inhibition of cell growth incubated for 72 hrs by MTT assay; assay type: functional, cell-based; conditions: MCF7, 72 h
# [7] = Antioxidant activity assessed as ABTS radical scavenging activity incubated for 10 mins by UV spectrophotometeric analysis; assay type: functional
# [8] = Antioxidant activity assessed as DPPH radical scavenging activity measured after 25 mins by UV visible spectrophotometeric analysis; assay type: functional
# Candida parapsilosis = assay: Antifungal activity against Candida parapsilosis ATCC 22019 assessed as inhibition of fungal growth incubated for 24 hrs; assay type: functional; conditions: Lodderomyces parapsilosis
# Candida albicans = assay: Antifungal activity against Candida albicans ATCC 90023 assessed as inhibition of fungal growth incubated for 24 hrs; assay type: functional
# Shigella dysenteriae = assay: Antibacterial activity against Shigella dysenteriae CICC 23829 assessed as inhibition of bacterial growth incubated for 24 hrs by broth microdilution method; assay type: functional
# Staphylococcus aureus [9] = assay: Antibacterial activity against methicillin-resistant Staphylococcus aureus ATCC 700699 assessed as inhibition of bacterial growth incubated for 24 hrs by broth microdilution method; assay type: functional
# Pseudomonas aeruginosa = assay: Antibacterial activity against Pseudomonas aeruginosa CICC 10419 assessed as inhibition of bacterial growth incubated for 24 hrs by broth microdilution method; assay type: functional
# Streptococcus pyogenes = assay: Antibacterial activity against Streptococcus pyogenes CICC 10356 assessed as inhibition of bacterial growth incubated for 24 hrs by broth microdilution method; assay type: functional
# Staphylococcus aureus [10] = assay: Antibacterial activity against Staphylococcus aureus CICC 23656 assessed as inhibition of bacterial growth incubated for 24 hrs by broth microdilution method; assay type: functional
# Clostridium perfringens = assay: Antibacterial activity against Clostridium perfringens CICC 22949 assessed as inhibition of bacterial growth incubated for 24 hrs by broth microdilution method; assay type: functional
# Escherichia coli = assay: Antibacterial activity against Escherichia coli CICC 10389 assessed as inhibition of bacterial growth incubated for 24 hrs by broth microdilution method; assay type: functional
# Salmonella enteritidis = assay: Antibacterial activity against Salmonella enteritidis CICC 24119 assessed as inhibition of bacterial growth incubated for 24 hrs by broth microdilution method; assay type: functional, Salmonella enterica subsp. enterica serovar Enteritidis; conditions: Salmonella enterica
# [11] = Antioxidant activity assessed as ABTS radical cation scavenging activity incubated for 10 mins under dark condition; assay type: functional
# [12] = Antioxidant activity assessed as DPPH radical scavenging potential measured for 30 mins optical density based analysis; assay type: functional
# Amine oxidase [flavin-containing] B, sequence (P27338 whole entry): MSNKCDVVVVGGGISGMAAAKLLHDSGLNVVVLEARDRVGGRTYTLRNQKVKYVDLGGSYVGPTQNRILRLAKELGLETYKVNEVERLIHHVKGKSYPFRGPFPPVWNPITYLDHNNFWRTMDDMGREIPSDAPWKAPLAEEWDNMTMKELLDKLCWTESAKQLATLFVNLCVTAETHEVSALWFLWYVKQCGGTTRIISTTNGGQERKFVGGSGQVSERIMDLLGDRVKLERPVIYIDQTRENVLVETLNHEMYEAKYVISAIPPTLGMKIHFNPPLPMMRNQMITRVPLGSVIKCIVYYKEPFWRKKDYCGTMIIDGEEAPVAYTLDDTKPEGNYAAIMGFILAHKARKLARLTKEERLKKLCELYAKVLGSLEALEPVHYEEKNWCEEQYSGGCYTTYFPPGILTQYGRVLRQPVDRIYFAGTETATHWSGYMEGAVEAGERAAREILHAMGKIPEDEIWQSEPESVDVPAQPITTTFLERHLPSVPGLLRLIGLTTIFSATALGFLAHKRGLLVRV
# Acetylcholinesterase, sequence (P22303 whole entry): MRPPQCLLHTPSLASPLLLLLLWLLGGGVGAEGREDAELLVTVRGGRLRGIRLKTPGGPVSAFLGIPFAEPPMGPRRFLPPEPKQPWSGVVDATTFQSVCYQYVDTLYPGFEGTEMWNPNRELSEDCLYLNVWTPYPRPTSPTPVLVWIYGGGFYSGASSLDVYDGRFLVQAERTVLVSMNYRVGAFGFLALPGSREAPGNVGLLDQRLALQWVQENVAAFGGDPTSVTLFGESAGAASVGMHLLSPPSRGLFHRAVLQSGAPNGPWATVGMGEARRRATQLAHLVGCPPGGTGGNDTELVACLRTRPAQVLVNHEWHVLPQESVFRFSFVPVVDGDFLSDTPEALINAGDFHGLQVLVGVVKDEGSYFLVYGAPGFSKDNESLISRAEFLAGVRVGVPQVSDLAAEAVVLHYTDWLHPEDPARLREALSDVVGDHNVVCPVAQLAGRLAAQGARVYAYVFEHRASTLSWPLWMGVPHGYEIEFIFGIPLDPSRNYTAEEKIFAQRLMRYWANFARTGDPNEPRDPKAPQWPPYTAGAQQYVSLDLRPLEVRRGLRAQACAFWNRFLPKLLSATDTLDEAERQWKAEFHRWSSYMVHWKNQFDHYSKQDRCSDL
structure (smiles),measurement,setting,value
COc1ccc2c(CC(=O)ON[C@@H](CSCc3ccccc3)C(=O)OCc3ccccc3)c3[n+](cc2c1OC)CCc1cc2c(cc1-3)OCO2,IC50,ECa-109 cell line,15 µM
same,IC50,LS174T,15 µM
same,IC50,SGC-7901,15 µM
same,IC50,SW-620,15 µM
same,IC50,HCT-116,15 µM
same,IC50,CCRF S-180,15 µM
same,IC50,HCT-8 [1],15 µM
same,IC50,MKN-28,15 µM
COc1ccc2cc3[n+](cc2c1OC)CCc1cc(O)c(O)cc1-3,IC50,[2],9.06 µM
same,IC50,Acetylcholinesterase,7.8 µM
CCCCCCN(CCCCCC)c1cc(OC)c(OC)c2c[n+]3c(cc12)-c1cc2c(cc1CC3)OCO2,IC50,HCT-8 [3],0.26 µM
same,IC50,A549,0.26 µM
same,IC50,HeLa [4],0.26 µM
same,IC50,Bel-7402,0.26 µM
CCCC(CCC)C(=O)Oc1c(OC)ccc2cc3[n+](cc12)CCc1cc2c(cc1-3)OCO2,inhibition at 5 µM,HEK-293T,> 90%
COc1ccc2cc3[n+](cc2c1OC(=O)C[C@@H]1C[C@H]2CC[C@@H]1C2)CCc1cc2c(cc1-3)OCO2,inhibition at 5 µM,HEK-293T,> 90%
COc1cc(CN2CCN(C(=O)c3ccco3)CC2)c2cc3[n+](cc2c1O)CCc1cc2c(cc1-3)OCO2,CC50,Ca-Ski,344 µM
same,IC50,Ca-Ski,6.11 µM
COc1cc(CN2CCN(c3cccc4ccccc34)CC2)c2cc3[n+](cc2c1O)CCc1cc2c(cc1-3)OCO2,CC50,HeLa [5],478 µM
same,IC50,HeLa [5],8.31 µM
COc1cc(-c2ccc(-c3ccccc3)cc2)c2cc3[n+](cc2c1OC)CCc1cc2c(cc1-3)OCO2,IC50,[6],0.74 µM
same,IC50,MCF7,0.98 µM
COc1ccc2cc3[n+](cc2c1OCCCCCn1ccc2ccccc21)CCc1cc2c(cc1-3)OCO2,IC50,[7],9.64 µM
same,IC50,[8],17.1 µM
CCCCCCOc1c(OC)cc(/C=C2\SC(=O)NC2=O)c2c1CN1CCc3cc4c(cc3C1C2)OCO4 (centres undefined),MIC,Candida parapsilosis,60 µM
same,MIC,Candida albicans,15 µM
COc1ccc2cc3[n+](cc2c1OC(=O)c1ccc(C(C)(C)C)cc1)CCc1cc2c(cc1-3)OCO2,inhibition at 5 µM,HEK-293T,> 90%
COc1ccc2cc3[n+](cc2c1OCc1ccc(C#N)cc1)CCc1cc2c(cc1-3)OCO2,MIC,Shigella dysenteriae,1.77 µM
same,MIC,Staphylococcus aureus [9],1.77 µM
same,MIC,Pseudomonas aeruginosa,1.77 µM
same,MIC,Streptococcus pyogenes,1.77 µM
same,MIC,Staphylococcus aureus [10],1.77 µM
same,MIC,Clostridium perfringens,1.77 µM
same,MIC,Escherichia coli,1.77 µM
same,MIC,Salmonella enteritidis,1.77 µM
COc1c(OC(=O)C23CC4CC(CC(C4)C2)C3)ccc2cc3[n+](cc12)CCc1cc2c(cc1-3)OCO2,inhibition at 5 µM,HEK-293T,> 90%
COc1ccc2cc3[n+](cc2c1OCc1ccc([N+](=O)[O-])cc1)CCc1cc2c(cc1-3)OCO2,MIC,Shigella dysenteriae,1.71 µM
same,MIC,Staphylococcus aureus [9],1.71 µM
same,MIC,Pseudomonas aeruginosa,1.71 µM
same,MIC,Streptococcus pyogenes,1.71 µM
same,MIC,Staphylococcus aureus [10],1.71 µM
same,MIC,Clostridium perfringens,1.71 µM
same,MIC,Escherichia coli,1.71 µM
same,MIC,Salmonella enteritidis,1.71 µM
COc1cc(CNc2nc3ccccc3s2)c2cc3[n+](cc2c1O)CCc1cc2c(cc1-3)OCO2,IC50,[11],8.48 µM
same,IC50,[12],25.4 µM
COc1ccc2cc3[n+](cc2c1OC)CCc1cc2c(cc1-3)OCO2 [BERBERINE CHLORIDE],IC50,ECa-109 cell line,25 µM
same,IC50,LS174T,25 µM
same,IC50,SGC-7901,25 µM
same,IC50,SW-620,25 µM
same,IC50,HCT-116,25 µM
same,IC50,CCRF S-180,25 µM
same,IC50,HCT-8 [1],25 µM
same,IC50,MKN-28,25 µM
